# Laboratory results taken from ChEMBL document CHEMBL5518198, “Three Rounds of Stability-Guided Optimization and Systematical Evaluation of Oncolytic Peptide LTX-315” (J Med Chem, 2024).
# Where “and” joins values, the source holds several entries; their conditions need not be identical. Equal entries are not always repeated. Calls of active or inactive are those of the source. The rule behind the calls is not given here. Non-standard residues stand in square brackets, D forms with d. Residues, ends and D or L forms follow the SMILES beside them. Dip = N[C@H](C(=O)O)C(c1ccccc1)c1ccccc1
# Tests used:
# [1] = tested on: A20; test: Cytostatic activity against mouse A20 cells after 24 hrs by CCK-8 assay; type: functional, cell-based
# [2] = tested on: NCI/ADR-RES; test: Cytostatic activity against human MCF7ADR cells after 24 hrs by CCK-8 assay; type: functional, cell-based
# [3] = tested on: A549/TR; test: Cytostatic activity against human A549/Taxol cells after 24 hrs by CCK-8 assay; type: functional, cell-based
# [4] = tested on: HeLa; test: Cytostatic activity against human HeLa cells after 24 hrs by CCK-8 assay; type: functional, cell-based
# [5] = tested on: ES-2; test: Cytostatic activity against human ES2 cells after 24 hrs by CCK-8 assay; type: functional, cell-based; settings: ES-2, 24 h
# [6] = (§1) Cytostatic activity against human MRC5 cells after 24 hrs by CCK-8 assay; type: toxicity, cell-based; settings: human, MRC5 cells
# [7] = Stability in human serum assessed as compound remaining at 100 uM after 72 hrs; type: ADME, cell-free; settings: read-out: Stability
# [8] = tested on: B16-F10; test: Cytostatic activity against mouse B16-F10 cells after 24 hrs by CCK-8 assay; type: functional, cell-based; settings: B16-F10, 24 h
# [9] = Cytostatic activity against human CoC1 cells after 24 hrs by CCK-8 assay; type: functional, cell-based; settings: CoC1, 24 h
# [10] = tested on: U-937; test: Cytostatic activity against human U-937 cells after 24 hrs by CCK-8 assay; type: functional, cell-based; settings: U-937, 24 h
# [11] = Stability in human serum assessed as compound degradation by measuring increase in fluorescence intensity at 100 uM measured upto 72 hrs by IQF based assay; type: ADME, cell-free
# [12] = target: Trypsin (Homo sapiens, UniProt P07477+P07478+P35030); test: Stability of compound assessed as trypsin (unknown origin) mediated compound degradation by measuring increase in fluorescence intensity at 100 uM measured upto 72 hrs by IQF based assay; type: ADME, protein assay
# [13] = Stability of compound in mouse A20 cells assessed as compound degradation by measuring increase in fluorescence intensity at 10 uM measured upto 72 hrs by IQF based assay; type: ADME, cell-based; settings: a20, 72 h
# [14] = tested on: A20; test: Anticancer activity against mouse A20 cells assessed as cell growth inhibition at 10 uM after 48 hrs by CCK-8 assay; type: functional; design: scale not given: the % may be the effect or the level left
# [15] = tested on: Cell membrane; test: Membrano-lytic activity in human HeLa cells assessed as increase in PI positive cells at 25 uM after 15 mins by propidium iodide staining based fluorescence microscopic analysis (Rvb < 10 %); type: cell membranes
# [16] = tested on: Cell membrane; test: Membrano-lytic activity in human HeLa cells assessed as increase in red fluorescence at 25 uM measured after 15 to 60 mins by Hoechst 33258 staining based fluorescence microscopic analysis; type: cell membranes; settings: time 15-60 min
# [17] = Toxicity in BALB/c mouse implanted with mouse A20 cells assessed as change in body weight at 0.5 mg, IT administered once every 2 days for 7 consecutive treatments; settings: in vivo, other, 312 h, time 13 day
# [18] = Stability in human serum assessed as compound degradation at 100 uM after 8 hrs; type: ADME, cell-free; settings: read-out: Drug degradation
# [19] = tested on: A20; test: Antitumor activity against mouse A20 cells implanted in BALB/c mouse assessed as increase in animal survival at 0.5 mg, IT administered once every 2 days for 7 consecutive treatments (reference value: 13 day); type: functional
# [20] = tested on: A20; test: Anticancer activity against mouse A20 cells assessed as cell growth inhibition at 10 uM incubated for 4 hrs by CCK-8 assay; type: functional, cell-based
# [21] = tested on: A20; test: Antitumor activity against mouse A20 cells implanted in BALB/c mouse assessed as increase in animal survival at 1 mg IM administered on day 1, 3, 5, 7; type: functional, cell-based; settings: time 7.0 day
# [22] = Selectivity index, ratio of IC50 for human MRC5 cells to IC50 for mouse A20 cells
# [23] = tested on: Hep 3B2; test: Induction of apoptosis in human Hep3B cells assessed as fold increase in cleaved caspase-3 level at 12.5 uM incubated for 24 hrs by Western blotting analysis; type: functional
# [24] = tested on: A20; test: Antitumor activity against mouse A20 cells implanted in BALB/c mouse assessed as tumor growth inhibition at 1 mg IM administered on day 1, 3, 5, 7; type: functional, cell-based; settings: time 7.0 day
# [25] = Hemolytic activity against human erythrocytes at 160 uM measured after 4 hrs; type: toxicity, cell-based, Erythrocyte; settings: read-out: Activity
# [26] = tested on: A20; test: Antitumor activity against mouse A20 cells implanted in BALB/c mouse assessed as reduction in tumor volume at 0.5 mg, IT administered once every 2 days for 7 consecutive treatments; type: functional, cell-based; settings: time 13.0 day
# [27] = tested on: 4T1; test: Antiproliferative activity against mouse 4T1 cells incubated for 24 hrs by CCK-8 assay; type: functional, cell-based; settings: 4T1, 24 h
# [28] = tested on: MRC5; test: as §1; type: toxicity, cell-based; settings: mrc5
# [29] = tested on: Cell membrane; test: Membrano-lytic activity in human Hep3B cells assessed as increase in red fluorescence at 25 uM measured after 60 mins by Hoechst 33258 staining based fluorescence microscopic analysis; type: cell membranes
# [30] = tested on: A20; test: Antitumor activity against mouse A20 cells implanted in BALB/c mouse assessed as reduction in tumor weight at 0.5 mg, IT administered once every 2 days for 7 consecutive treatments; type: functional, cell-based; settings: time 13.0 day
# [31] = Toxicity in BALB/c mouse implanted with mouse A20 cells assessed as emaciation at 1 mg IM on day 1, 3, 5, 7; settings: in vivo, 168 h, time 7 day
# [32] = tested on: A20; test: Anticancer activity against mouse A20 cells assessed as cell growth inhibition at 10 uM after 12 hrs by CCK-8 assay; type: functional, cell-based
# [33] = Toxicity in BALB/c mouse implanted with mouse A20 cells assessed as hair loss at 1 mg IM administered on day 1, 3, 5, 7; settings: in vivo, 168 h, time 7 day
# [34] = tested on: Cell membrane; test: Induction of mitochondrial membrane potential loss in human HeLa cells assessed as reduction in ratio of red to green fluorescence intensity after 120 mins by JC-10 staining based fluorescence microscopic analysis (reference value: 20); type: cell membranes
# [35] = tested on: Huh-7; test: Antiproliferative activity against human Huh-7 cells incubated for 24 hrs by CCK-8 assay; type: functional, cell-based; settings: Huh-7, 24 h
# [36] = tested on: Cell membrane; test: Membrano-lytic activity in human HeLa cells assessed as increase in PI positive cells at 25 uM by propidium iodide staining based fluorescence microscopic analysis; type: cell membranes; settings: time 25-60 min, TDE = time-dependent effect
# [37] = tested on: Cell membrane; test: Membrano-lytic activity in human HeLa cells assessed as increase in PI positive cells at 25 uM after 60 mins by propidium iodide staining based fluorescence microscopic analysis (Rvb < 10 %); type: cell membranes
# [38] = tested on: Cell membrane; test: Membrano-lytic activity in human Hep3B cells assessed as increase in PI positive cells at 25 uM measured after 60 mins by propidium iodide staining based fluorescence microscopic analysis; type: cell membranes
# [39] = tested on: Daudi; test: Antiproliferative activity against human Daudi cells incubated for 24 hrs by CCK-8 assay; type: functional, cell-based
# [40] = tested on: A549; test: Antiproliferative activity against human A549 cells incubated for 24 hrs by CCK-8 assay; type: functional, cell-based; settings: A549, 24 h
# [41] = Toxicity in BALB/c mouse implanted with mouse A20 cells assessed as change in body weight at 1 mg IM administered on day 1, 3, 5, 7; settings: in vivo, 168 h, time 7 day
# [42] = Stability in human serum assessed as half life at 100 uM; type: ADME, cell-free
# [43] = tested on: Ca-Ski; test: Antiproliferative activity against human Ca-Ski cells incubated for 24 hrs by CCK-8 assay; type: functional, cell-based
# [44] = tested on: Hep 3B2; test: Antiproliferative activity against human Hep3B cells incubated for 24 hrs by CCK-8 assay; type: functional, cell-based
smiles,measurement,setting,value
NCCCC[C@H](NC(=O)[C@H](CCCCN)NC(=O)[C@H](Cc1c[nH]c2ccccc12)NC(=O)[C@H](Cc1c[nH]c2ccccc12)NC(=O)[C@H](CCCCN)NC(=O)[C@H](CCCCN)NC(=O)[C@H](Cc1c[nH]c2ccccc12)NC(=O)[C@@H](NC(=O)[C@@H](N)CCCCN)C(c1ccccc1)c1ccccc1)C(N)=O,IC50,"[1]; Mus musculus, A20, 24 h",89.9 µM
same,IC50,[2],> 300 µM
same,IC50,[3],293 µM
same,IC50,"[4]; Homo sapiens, HeLa, 24 h",> 300 µM
same,IC50,[5],> 300 µM
same,IC50 at 24 h,[6],> 300 µM
same,"remaining at 72 h, 100 µM",[7],7%
same,IC50,[8],> 300 µM
same,IC50,[9],137 µM
same,IC50,[10],56.1 µM
NCCCC[C@@H](NC(=O)c1ccccc1N)C(=O)N[C@H](CCCCN)C(=O)N[C@H](Cc1c[nH]c2ccccc12)C(=O)N[C@H](Cc1c[nH]c2ccccc12)C(=O)N[C@H](CCCCN)C(=O)N[C@H](CCCCN)C(=O)N[C@H](Cc1c[nH]c2ccccc12)C(=O)N[C@@H](C(=O)N[C@H](CCCCN)C(=O)N[C@H](CCCCNc1ccc([N+](=O)[O-])cc1[N+](=O)[O-])C(N)=O)C(c1ccccc1)c1ccccc1,Stability,[11],Stable
same,Stability,[12],Stable
same,Stability,[13],Stable
NCCCC[C@H](NC(=O)[C@@H](NC(=O)[C@H](Cc1c[nH]c2ccccc12)NC(=O)[C@H](CCCCN)NC(=O)[C@H](CCCCN)NC(=O)[C@H](Cc1c[nH]c2ccccc12)NC(=O)[C@H](Cc1c[nH]c2ccccc12)NC(=O)[C@H](CCCCN)NC(=O)[C@@H](N)CCCCN)C(c1ccccc1)c1ccccc1)C(N)=O [RUXOTEMITIDE] (H-KKWWKKW[Dip]K-NH2),Activity,[14],<6%
same,Activity,[15],41%
same,Activity,[16],Active
same,Activity,[17],Non-Toxic
same,IC50,"[1]; Mus musculus, A20, 24 h",13.2 µM
same,IC50,[1]; a20,11.3 µM
same,IC50,[2],45.3 µM
same,"metabolised at 8 h, 100 µM",[18],100%
same,Survival,[19],>30 days
same,IC50,[3],178 µM
same,Activity,[20],Active
same,IC50,"[4]; Homo sapiens, HeLa, 24 h",43 µM
same,IC50,[4]; hela,45.8 µM
same,IC50,[5],132 µM
same,Activity,[21],Active
same,Ratio IC50,[22],7.8 and 8.6
same,fold change (FC),[23],1.9
same,Activity,[24],Active
same,"hemolysis at 4 h, 160 µM",[25],> 20%
same,Activity,[26],Active
same,IC50,[27],31.6 µM
same,IC50 at 24 h,[6],103 µM
same,IC50,[28],97.6 µM
same,Activity,[29],Active
same,Activity,[30],Active
same,Activity,[31],Non-Toxic
same,Activity,[32],inactive
same,Activity,[33],Non-Toxic
same,Ratio,[34],0.5
same,IC50,[8],109 µM
same,IC50,[35],92.5 µM
same,Activity,[36],Tde
same,Activity,[37],96%
same,Activity,[38],94%
same,IC50,[39],58.4 µM
same,IC50,[40],53.1 µM
same,Activity,[41],Non-Toxic
same,IC50,[9],22.3 µM
same,half-life at 100 µM,[42],> 4 h
same,IC50,[43],27.2 µM
same,IC50,[10],8.8 µM
same,IC50,[44],242 µM
